Usually Ki stands for a dissociation constant, usually derived from enzyme kinetics or from competition with a known ligand.

Like-named read-outs stand apart in the source and are kept apart here.

These results are taken from article PMC2967674 (Bioorganic & medicinal chemistry, 2009).

For series [1], the target named is T1, System xc^− transporter (SXc^−) (Homo sapiens, UniProt Q9UPY5).
T1 sequence (Q9UPY5 1-501): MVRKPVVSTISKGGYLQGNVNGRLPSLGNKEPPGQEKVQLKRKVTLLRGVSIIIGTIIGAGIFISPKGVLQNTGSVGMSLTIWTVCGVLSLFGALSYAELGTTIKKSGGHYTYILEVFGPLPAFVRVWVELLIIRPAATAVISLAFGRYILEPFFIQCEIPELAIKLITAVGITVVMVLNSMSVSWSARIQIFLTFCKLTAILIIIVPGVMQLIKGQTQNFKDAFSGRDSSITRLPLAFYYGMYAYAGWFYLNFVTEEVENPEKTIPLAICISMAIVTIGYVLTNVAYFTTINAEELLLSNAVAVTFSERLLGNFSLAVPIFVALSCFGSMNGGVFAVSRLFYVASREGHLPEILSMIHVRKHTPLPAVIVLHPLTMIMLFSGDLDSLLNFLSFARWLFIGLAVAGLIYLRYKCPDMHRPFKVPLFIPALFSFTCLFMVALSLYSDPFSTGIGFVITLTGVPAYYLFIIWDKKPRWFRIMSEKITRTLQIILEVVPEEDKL
T1 sequence (P08195 1-529 partner): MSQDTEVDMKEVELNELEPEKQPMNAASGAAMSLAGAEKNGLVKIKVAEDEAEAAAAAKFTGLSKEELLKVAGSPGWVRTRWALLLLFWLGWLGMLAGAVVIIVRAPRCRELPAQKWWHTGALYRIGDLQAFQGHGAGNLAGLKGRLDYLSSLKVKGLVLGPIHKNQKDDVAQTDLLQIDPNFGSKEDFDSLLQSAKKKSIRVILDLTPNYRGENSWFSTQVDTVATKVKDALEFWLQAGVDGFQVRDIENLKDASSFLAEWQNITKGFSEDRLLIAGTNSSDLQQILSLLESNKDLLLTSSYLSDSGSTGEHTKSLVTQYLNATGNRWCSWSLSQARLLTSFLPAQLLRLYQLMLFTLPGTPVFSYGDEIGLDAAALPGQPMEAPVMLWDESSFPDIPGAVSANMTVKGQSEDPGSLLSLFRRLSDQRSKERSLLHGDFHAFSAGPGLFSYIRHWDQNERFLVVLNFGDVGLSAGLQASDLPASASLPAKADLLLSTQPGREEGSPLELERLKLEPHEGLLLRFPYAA
It counts as cell-based. The settings on record: SNB-19 cells; for inhibitory activity at SXc^− (in words): initial screen at a single concentration (250 μM or 500 μM).

The subject of series [2] is SXc^−. The conditions noted are these: cited from earlier work.
For series [3], the target named is SXc^−. The conditions noted are these: read-out: Ki at SXc^−; cited from earlier work.
Series [4] relates to AMPA receptor. The settings on record: brain slice; cited from earlier work.
For series [5], the target named is T2, SXc^− (Homo sapiens, UniProt Q9UPY5).
T2 sequence (Q9UPY5 1-501): T1 sequence (Q9UPY5 1-501)
T2 sequence (P08195 1-529 partner): T1 sequence (P08195 1-529 partner)
It counts as cell-based. The settings on record: SNB-19 cells, Na-free; for substrate-induced efflux of L-Glu (substrate activity): 500 μM; for attenuation of L-Cys2-induced efflux of L-Glu: added together with L-cystine.

In series [6] the test system is GluR2. The settings on record: S1S2 construct filter assay; Gouaux, personal communication; cited from earlier work.
Series [7] can be described thus: Conversion of open hydrazone to closed isoxazolo[3,4-d]pyridazinone in solution. The conditions noted are these: on standing in solution, 11a to 13a. It counts as physicochemical.

With “4-{1-[(3,5-Bis-trifluoromethyl-phenyl)-hydrazono]-ethyl}-5-(2-naphthalen-2-yl-ethyl)-isoxazole-3-carboxylic acid [Compound 11e]”, the “inhibition of SXc^−-mediated L-Glu uptake” value in series [1] (compound 500 μM (100 minus % of control of Table 2)) was 86%. Besides, the “inhibitory activity at SXc^− (in words)” value in series [1] is listed as “moderate amount of inhibitory activity”. For `N[C@H](C(=O)O)c1ccc(C(=O)O)cc1` [Compound 4-S-CPG, 4-S-carboxy-phenylglycine], in series [2], the “substrate activity at SXc^− (in words)” value is “essentially a non-substrate inhibitor”. Besides, in series [3], the Ki was about 5 µM.

Take `Cc1onc(O)c1C[C@H](N)C(=O)O` [Compound 6, aminomethyl isoxazole propionic acid, reference compound]: the “inhibitory activity at SXc^− (in words)” value in series [1] is recorded as “no discernable activity”. Consider `Cc1onc(C(=O)O)c1C[C@H](N)C(=O)O` [Compound 7, amino-3-carboxy-5-methylisoxazole propionic acid, reference compound], for which the “inhibitory activity at SXc^− (in words)” value in series [1] was “no discernable activity”. Consider `N[C@@H](Cc1c(C(=O)O)noc1CCc1ccccc1)C(=O)O` [Compound 7d], for which the “displacement of radiolabeled AMPA” value in series [4] is reported as “essentially no ability to displace radiolabeled AMPA”. Further, the “inhibitory activity at SXc^− (in words)” value in series [1] was “markedly inhibit”. With `N[C@@H](Cc1c(C(=O)O)noc1COCc1ccccc1)C(=O)O` [Compound 7e, 4-[(2R,S)-2-amino-2-carboxyethyl]-5-[benzyloxymethyl]isoxazole-3-carboxylic acid], in series [1], the “inhibitory activity at SXc^− (in words)” value was “markedly inhibit”. With `N[C@@H](Cc1c(C(=O)O)noc1CCc1cccc2ccccc12)C(=O)O` [Compound 7f], in series [4], the “displacement of radiolabeled AMPA” value is “essentially no ability to displace radiolabeled AMPA”. The “inhibitory activity at SXc^− (in words)” value in series [1] is “markedly inhibit”. As to `N[C@@H](Cc1c(C(=O)O)noc1CCc1ccc2ccccc2c1)C(=O)O` [Compound 7g], in series [4], the “displacement of radiolabeled AMPA” value is on record as “essentially no ability to displace radiolabeled AMPA”. Also, in series [1], the “inhibitory activity at SXc^− (in words)” value was “markedly inhibit”. Moreover, in series [5], the “substrate-induced efflux of L-Glu (substrate activity)” value is recorded as “did not induce an efflux of L-Glu over background levels” and the “attenuation of L-Cys2-induced efflux of L-Glu” value is given as “did attenuate the ability of L-Cys2 to exchange with intracellular L-Glu”. In series [5] (listed as S-2-naphthyl-ACPA), the “attenuation of L-Cys2-induced efflux of L-Glu” value is “attenuate L-cystine-induced efflux”. Take `C/C(=N\NC(N)=O)c1c(C(=O)O)noc1C` [Compound 9b]: the GluR2 binding result in series [6] is “no detectable GluR2 binding”. Take `C/C(=N\NC(=O)Nc1ccccc1)c1c(C(=O)O)noc1C` [Compound 9c]: in series [6], the GluR2 binding result was “no detectable GluR2 binding”. In addition, in series [1], the “inhibitory activity at SXc^− (in words)” value is “moderate amount of inhibitory activity”. For the compound `C/C(=N\Nc1ccccc1)c1c(C(=O)O)noc1C` [Compound 11a, 5-Methyl-4-[1-(phenyl-hydrazono)-ethyl]-isoxazole-3-carboxylic acid], the “time for the open form to convert to the closed [3,4-d] form in solution” value in series [7] is “a matter of a few hours”. As to `C/C(=N\Nc1ccc([N+](=O)[O-])cc1[N+](=O)[O-])c1c(C(=O)O)noc1C` [Compound 11d, 4-{1-[(2,4-Dinitro-phenyl)-hydrazono]-ethyl}-5-methyl-isoxazole-3-carboxylic acid], in series [6], the GluR2 binding entry is listed as “no detectable GluR2 binding”.

In the case of `C/C(=N\Nc1ccc([N+](=O)[O-])cc1[N+](=O)[O-])c1c(C(=O)O)noc1COCc1ccc2ccccc2c1` [Compound 17, 4-{1-[(2,4-Dinitro-phenyl)-hydrazono]-ethyl}-5-(naphthalen-2-ylmethoxymethyl)-isoxazole-3-carboxylic acid], the “inhibitory activity at SXc^− (in words)” value in series [1] is “virtually devoid of activity”. Regarding `N[C@@H](Cn1oc(=O)[nH]c1=O)C(=O)O` [QA, quisqualate], the “rate of exchange with L-Glu relative to L-Cys2” value in series [2] is given as 35%. Moreover, in series [3], the inhibition constant (Ki) was about 5 µM. Turning to L-cystine [reference compound], the “substrate-induced efflux of L-Glu (substrate activity)” value in series [5] is reported as “produced a significant efflux of L-glutamate over baseline”.
